Measurements taken from PMC10023787, “Trio-pharmacophore DNA-encoded chemical library for simultaneous selection of fragments and linkers” (Nature Communications, 2023).
Read-outs that look alike come from different tables or passages of the source.

Columns and labels:
[1] = biological target: T1, MMP-2 (Homo sapiens, UniProt P08253); assay: MMP-2 inhibition assay (fluorogenic peptide substrate); type: biochemical
T1 construct: purchased Sino Biological 10082-HNAH
T1 sequence (P08253 110-660): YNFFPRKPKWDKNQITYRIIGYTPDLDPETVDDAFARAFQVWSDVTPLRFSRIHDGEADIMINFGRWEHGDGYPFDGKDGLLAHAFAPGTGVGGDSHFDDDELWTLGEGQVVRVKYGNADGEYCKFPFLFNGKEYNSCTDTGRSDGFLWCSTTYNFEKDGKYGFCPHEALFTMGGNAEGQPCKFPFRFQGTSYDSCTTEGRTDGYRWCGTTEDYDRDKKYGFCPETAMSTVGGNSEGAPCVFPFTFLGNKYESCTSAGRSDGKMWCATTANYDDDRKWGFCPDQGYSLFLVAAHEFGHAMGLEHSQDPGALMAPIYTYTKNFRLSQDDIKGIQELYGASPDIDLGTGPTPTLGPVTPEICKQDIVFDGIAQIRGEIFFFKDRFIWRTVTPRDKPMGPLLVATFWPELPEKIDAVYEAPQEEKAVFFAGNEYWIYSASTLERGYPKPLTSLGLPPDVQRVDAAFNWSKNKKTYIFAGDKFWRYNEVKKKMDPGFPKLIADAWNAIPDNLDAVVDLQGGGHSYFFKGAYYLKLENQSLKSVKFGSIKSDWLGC
Procedure, shortened: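 Hydrolysis of DNP-Pro-Leu-Gly-Met-Trp-Ser-Arg (25 μM final) was tracked kinetically at em 360 nm over 30 min. Enzymes, APMA-activated and at 10 nM (MMP-9) or 6.5 nM (MMP-2) final, sat 30 min at RT with inhibitor in pH 7.5 Tris buffer with CaCl2 and Brij 35 first. Logistic fitting of Vmax against concentration gave IC50, in triplicate.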

[2] = biological target: T2, MMP-9 (Homo sapiens, UniProt P14780); assay: Dynamic dual-pharmacophore DEL selection against MMP-9, NGS decoding; type: binding; settings: MMP9 3L (3' sub-library members)
T2 construct: purchased Sino Biological 10327-HNAH
From the text: Matrix metalloproteinases (MMPs) are zinc-dependent endopeptidases capable of degrading and remodeling extracellular matrix components[46],[47]. They are attractive therapeutic targets as high expression levels were detected in various diseases, such as inflammatory diseases, and at different stages of cancers, including metastasis, invasion, and angiogenesis[47]–[53]. As shown in Supplementary Fig. 3c, we performed selections against the two gelatinases (human MMP-2 and human MMP-9) to identify binding fragments for later design and synthesis of small molecule inhibitors. After selection, the three sub-libraries were decoded, and the enrichment was calculated by dividing the post-selection fraction (count/total counts) by the pre-selection fraction (Fig. 4a and Supplementary Fig. 13).
4 µg of MMP-2/MMP-9 was dissolved in 100 µl of selection buffer containing 25 mM Tris-base, 10 mM CaCl2, 150 mM NaCl, 0.05% Tween 20, pH 7.5. 10 µl of 4-Aminophenylmercuric acetate (APMA) (100 mM) solution was added to the protein solution and incubated at 37 °C for 1 h. After activation, the solution was added on top of 40 µl pre-washed Ni-NTA resin and incubated for 30 min on a rotary shaker. The supernatant was discarded, and the resin was washed three times with the selection buffer.
For each independent selection, three sub-libraries were mixed in the selection buffer with a final concentration of 40 nM of each sub-library in 100 µl. The mixture was heat denatured at 90 °C for 1 min and slowly cooled down to allow the formation of the trio-pharmacophore library. The dynamic dual-pharmacophore DEL was provided by DyNAbind GmbH (Merck, DYNA001).
The assembled library was incubated with the protein-bound solid support for 2 h at RT on a rotary shaker. In parallel, selection on bare solid support served as the negative control to exclude promiscuous binders on the resin. After panning, the supernatant was discarded, and the resin was washed three times with 1 ml selection buffer. Finally, 100 µl of 50 mM Tris buffer, pH 7.4 was added to resuspend the resin and the resin was incubated at 95 °C for 5 min to denature the protein, release, and collect the bound library members.
The eluted library members were subjected to sample preparation for NGS. NGS preparation was achieved by two-step PCR. First, the individual selection was indexed using primers containing unique sequences corresponding to each selection. The amplified product was purified from 2% agarose gel. Second, the purified DNA from all selections were pooled in equal amount and subjected to the 2nd PCR step to attach sequences compatible with the NGS flow cell and the sequencing primers. NGS was performed by Novogene UK with Novaseq 6000. Raw data files (fastq files) obtained were decoded using a custom python script and excel. The sequence reads corresponding to each sample was retrieved by searching for the correct index unique to each selection. Then, the code region was extracted from each sequence and assigned to the corresponding identity. The count of each code in each selection sample was obtained by looping through the total reads and counting the occurrence of each code. The enrichment fold of each compound was calculated by first, dividing the count by the total count to get the abundance, second, the abundance after the selection was divided by the abundance of pre-selection to reflect the distribution change of the compound. Next, the enrichment fold was plotted against the count for each member of the library to give the scatter plots as in Fig. 4.

[3] = read-out: Mean (MMP-2, Supplementary fig 16)
[4] = read-out: Mean (MMP-2 dose-response, Supplementary fig 15)
[5] = read-out: Mean (dose-response, Supplementary fig 17)
[6] = read-out: Normalized activity (Mean)

T2 sequence (P14780 107-707 limits assumed): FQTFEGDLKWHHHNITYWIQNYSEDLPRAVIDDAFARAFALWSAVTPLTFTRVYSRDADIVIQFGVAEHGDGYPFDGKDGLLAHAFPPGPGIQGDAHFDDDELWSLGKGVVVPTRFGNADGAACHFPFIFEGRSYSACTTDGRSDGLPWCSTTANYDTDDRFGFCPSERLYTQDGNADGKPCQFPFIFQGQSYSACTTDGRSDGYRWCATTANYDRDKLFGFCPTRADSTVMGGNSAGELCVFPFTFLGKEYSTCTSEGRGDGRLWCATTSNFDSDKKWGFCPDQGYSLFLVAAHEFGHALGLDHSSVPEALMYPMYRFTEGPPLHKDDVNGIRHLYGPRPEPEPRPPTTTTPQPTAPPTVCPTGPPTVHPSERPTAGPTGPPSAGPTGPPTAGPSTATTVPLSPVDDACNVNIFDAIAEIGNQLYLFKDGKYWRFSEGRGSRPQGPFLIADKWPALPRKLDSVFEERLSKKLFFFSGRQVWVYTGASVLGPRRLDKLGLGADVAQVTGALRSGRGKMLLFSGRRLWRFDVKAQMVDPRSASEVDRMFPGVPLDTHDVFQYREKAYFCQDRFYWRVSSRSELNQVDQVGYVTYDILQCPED

For `O=C(O)c1cncc(O)c1` [Compound 828], the inhibitory effect ([1]; in words) was “high µM range”, the IC50 ([1]; mean ± SE, n.d: not detected, Fig. 5d unit inferred, µM, read-out: IC50) was 385 ± 67.3 µM and the remaining activity at 0.0156 µM [1, 3] was 104%. It also gave a remaining activity at 0.08 µM [1, 3] of 94%, a remaining activity at 0.39 µM [1, 3] of 105% and a remaining activity at 1.95 µM [1, 3] of 107%. For the same compound, the remaining activity at 9.76 µM [1, 3] was 90.1%, the remaining activity at 48.78 µM [1, 3] was 83.6% and the remaining activity at 243.9 µM [1, 3] was 67.9%. It also gave a remaining activity at 1219.51 µM [1, 3] of 0%, a remaining activity at 0.0156 µM [1, 4] of 104% and a remaining activity at 0.08 µM [1, 4] of 94%. It also gave a remaining activity at 0.39 µM [1, 4] of 105%, a remaining activity at 1.95 µM [1, 4] of 107% and a remaining activity at 9.76 µM [1, 4] of 90.1%. It also gave a remaining activity at 48.78 µM [1, 4] of 83.6%, a remaining activity at 243.9 µM [1, 4] of 67.9% and a remaining activity at 1219.51 µM [1, 4] of 0%. The remaining activity at 0.0156 µM [1, 5] was 104%, the remaining activity at 0.08 µM [1, 5] was 94% and the remaining activity at 0.39 µM [1, 5] was 105%. The remaining activity at 1.95 µM [1, 5] was 107%, the remaining activity at 9.76 µM [1, 5] was 90.1% and the remaining activity at 48.78 µM [1, 5] was 83.6%. For the same compound, the remaining activity at 243.9 µM [1, 5] was 67.9%, the remaining activity at 1219.51 µM [1, 5] was 0% and the remaining activity at 0.0156098 µM [1, 6] was 104%. The remaining activity at 0.0780488 µM [1, 6] was 94%, the remaining activity at 0.390244 µM [1, 6] was 105% and the remaining activity at 1.95122 µM [1, 6] was 107%. For the same compound, the remaining activity at 9.7561 µM [1, 6] was 90.1%, the remaining activity at 48.7805 µM [1, 6] was 83.6% and the remaining activity at 243.902 µM [1, 6] was 67.9%. For the same compound, the remaining activity at 1219.51 µM [1, 6] was 0%, the “Enrichment Fold” value [2] was 10.2969 and the Count ([2]; NGS sequence count after selection) was 32127.
